In paper PMC7024302, “Ultrashort Cationic Lipopeptides–Effect of N-Terminal Amino Acid and Fatty Acid Type on Antimicrobial Activity and Hemolysis” (Molecules, 2020):
Converted amounts (≈) assume the structure as drawn. Residues, ends and D or L forms follow the SMILES beside them.

Experiments:
[1] = design: method as in earlier work; settings: cited from earlier work
[2] = tested on: P. aeruginosa ATCC 9027; assay type: cell-based, Pseudomonas aeruginosa; settings: ATCC 9027, 18 h
Summary of the method: (§1)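 Lipopeptides, tested from 0.5 to 256 µg/mL, were incubated with bacteria (5 × 10^5 CFU/mL, MHB) for 18 h at 37 °C following CLSI guidance. Triplicate determinations gave the MIC as the lowest growth-inhibiting concentration.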

[3] = tested on: A. baumannii ATCC BAA-1605; assay type: cell-based, Acinetobacter baumannii; settings: ATCC BAA-1605, 18 h
Summary of the method: as §1

[4] = tested on: C. albicans ATCC 10231; assay type: cell-based, Candida albicans; settings: ATCC 10231, 24 h, pH 7
[5] = Determination of peptide hydrophobicity with RP-HPLC (adjusted retention time); assay type: physicochemical; settings: Table 3; adjusted retention time as hydrophobicity; RP-HPLC C18, linear 10–55% acetonitrile over 60 min, 0.1% TFA, 25.0 °C, UV 214 nm, triplicate
Summary of the method: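 Peptides at 1 g/L in water with 0.1% TFA run on a C18 column (3.0 × 100 mm, 5 µm). Elution with a linear 10–55% acetonitrile gradient over 60 min, 0.1% TFA in both eluents, 0.5 mL/min, 25.0 ± 0.1 °C. Detection at 214 nm, in triplicate.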

[6] = tested on: S. aureus ATCC 25923; assay type: cell-based, Staphylococcus aureus; settings: ATCC 25923, 18 h
Summary of the method: as §1

[7] = tested on: S. aureus ATCC 33591 (MRSA); assay type: cell-based, Staphylococcus aureus; settings: ATCC 33591, 18 h
Summary of the method: as §1

[8] = tested on: E. faecium ATCC 700221; assay type: cell-based, Enterococcus faecium; settings: ATCC 700221, 18 h
Summary of the method: as §1

[9] = tested on: K. aerogenes ATCC 13048; assay type: cell-based, Klebsiella aerogenes; settings: ATCC 13048, 18 h
Summary of the method: as §1

[10] = tested on: human red blood cells (hRBCs); assay type: cell-based; settings: red cells of human, 1 h
Summary of the method: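 Fresh EDTA-anticoagulated human RBCs, PBS-washed, at 4% (v/v) final were exposed to lipopeptides at 0.5–256 µg/mL for 1 h at 37 °C. Released haemoglobin in supernatant read at 540 nm; PBS as 0% and 1% Triton X-100 as 100% haemolysis. Triplicates.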

[11] = tested on: K. pneumoniae ATCC 700603; assay type: cell-based, Klebsiella pneumoniae; settings: ATCC 700603, 18 h
Summary of the method: as §1

MIC PA [2] [µg/mL] | MIC A [3] [µg/mL] | MIC CA [4] [µg/mL] | tR’ [5] [min] | MIC SA [6] [µg/mL] | MIC S [7] [µg/mL] | MIC E1 [8] [µg/mL] | MIC E2 [9] [µg/mL] | HC50 [10] | MIC K [11] [µg/mL] | Structure (SMILES) | pKa of the side chain [1]
– | – | – | – | – | – | – | – | – | – | NCCCC[C@H](N)C(=O)O [Lys, lysine] | 10.67
32 (≈ 52.4 µM) | 32 (≈ 52.4 µM) | 16 (≈ 26.2 µM) | 40.92 | 8 (≈ 13.1 µM) | 16 (≈ 26.2 µM) | 8 (≈ 13.1 µM) | 256 (≈ 419 µM) | 41.08 (±0.62) µg/mL | 256 (≈ 419 µM) | CCCCCCCCCCCCCC(=O)N[C@@H](C)C(=O)N[C@@H](CCCNC(=N)N)C(=O)N[C@@H](CCCNC(=N)N)C(N)=O [compound 10, C14-ARR-NH2] (HELM PEPTIDE1{[CCCCCCCCCCCCCC(=O)[*:2]].A.R.R.[am]}$$$$V2.0) | –
